Laboratory results: article PMC3001719, “The heme sensing response regulator HssR in Staphylococcus aureus but not the homologous RR23 in Listeria monocytogenes modulates susceptibility to the antimicrobial peptide plectasin” (BMC Microbiology, 2010)
Where “and” joins values, the source holds several entries; their conditions need not be identical. Equal entries are not always repeated.

Tests used:
[1] = tested on: S. aureus 15981 ΔTCS15 (hssRS) mutant; experiment: Growth in TSB with plectasin; assay type: cell-based, Staphylococcus aureus; conditions: plectasin 35 μg/ml, 37°C, absorbance at 600 nm
Procedure: (§1) Overnight cultures of S. aureus were diluted to an absorbance at 600 nm of 0.05 in TSB with and without 4 μM hemin and/or 35 μg/ml plectasin and grown at 37°C. Measurements of the absorbance were made every 30 minutes.

[2] = tested on: S. aureus 8325-4 hssR::bursa transposon mutant; experiment: Growth in TSB with plectasin; assay type: cell-based, Staphylococcus aureus; conditions: plectasin 35 μg/ml, 37°C, absorbance at 600 nm
Procedure: as §1

[3] = tested on: L. monocytogenes wild type; experiment: Spontaneous mutation control on plectasin plates; assay type: cell-based, Listeria monocytogenes; conditions: L. monocytogenes wild type grown on BHI with 4, 5 or 10 fold MIC of plectasin
Procedure: The transposon mutant libraries were screened on agar plates for increased resistance to plectasin as compared to wild-type sensitivity. Wild-type sensitivity was determined by plating approx. 1.0 × 10^7 CFU/ml on TSB agar containing plectasin (S. aureus) and approx. […] Plates were incubated at 37°C for 3 days and inspected for growth. […]

[4] = tested on: hrtB and hssR expression in wild type S. aureus; experiment: Expression of hrtB and hssR, northern blot and quantitative real-time PCR; assay type: cell-based, Staphylococcus aureus; conditions: plectasin 35 μg/ml, 10 and 90 minutes, northern blot and quantitative real-time PCR (P > 0.05)
Procedure: Wild type S. aureus and the hssR mutant were grown to an absorbance at 600 nm of 0.45 ± 0.1, samples were withdrawn for the isolation of RNA. Plectasin (35 μg/ml) was added to the growing culture, and after 10 and 90 minutes samples were also withdrawn. Cells were quickly cooled and lysed mechanically using the FastPrep machine (Bio101; Q-biogene), and RNA was isolated by the RNeasy kit (QIAGEN, Valencia, Calif.) according to the manufacturer's instructions. Northern Blotting: RNA was transferred to a nylon membrane (Boehringer Mannheim) by capillary blotting as previously described. Hybridization was performed using gene-specific probes that had been labelled with [^32P]dCTP using the Ready-to-Go DNA-labelling beads from Amersham Biosciences. Primers for probes amplifying hrtB and hssR: hrtB-1F:(5'[…]3'), hrtB-2R: (5'[…]3'), hssR-1F: (5'[…]3'), hssR-2R:(5' […]3'). All steps were repeated in two independent experiments giving similar results. Quantitative RT-PCR: RNA was treated with DNase and RevertAid™ H Minus first strand cDNA synthesis Kit (Fermentas). […] Statistical analysis on QRTPCR results using GraphPad prism5, 1Way Anova with Dunnett's Multiple comparison test (GraphPad Software, Inc) determined changes in expression comparing time 0 to time 10 minutes or 90 minutes.

[5] = tested on: mice, human keratinocytes and erythrocytes; conditions: in mice and on human keratinocytes and erythrocytes; cited from earlier work
Source text: Recently, the antimicrobial peptide, plectasin isolated from a saprophytic fungus, was described.

[6] = tested on: S. aureus hssR mutants; experiment: MIC of hssR mutants compared to wild type; assay type: cell-based, Staphylococcus aureus; conditions: ratio of MIC, S. aureus hssR response regulator mutants vs wild type, regardless of the genetic background
Procedure: Minimal inhibitory concentrations (MIC) of plectasin, eurocin, protamine, novicidin, and novispirin G10 were determined using a microbroth dilution method. Colonies from a BHI plate incubated overnight at 37 °C were suspended in MHB pH 7.4 to an absorbance at 546 nm of 0.11-0.12 at 546 nm (approx. 1.0 × 10^8 CFU/ml) and diluted in MHB to a concentration of 5.0 × 10^5 CFU/ml. Ninety μl of bacterial suspension was incubated with 10 μl of peptide solution in polypropylene 96-well plates (Nunc, 442587) for 18-24 h at 37°C. The peptide solutions were made fresh on the day of assay. The range of concentrations assayed were 0.25-256 μg/ml for plectasin and eurocin, 0.125-128 μg/ml for protamine and novispirin G10, and 0.031-32 μg/ml for novicidin. MIC was the lowest peptide concentration at which visual growth was inhibited.

[7] = tested on: L. monocytogenes; experiment: ATP leakage (intracellular and extracellular ATP, bioluminescence); assay type: cell-based, Listeria monocytogenes; conditions: L. monocytogenes, 500 μg/ml peptide, 50 mM HEPES pH 7.0 with 0.2% glucose, vs peptide dilution buffer
Procedure: L. monocytogenes and S. aureus were grown in TSB at 37°C. Bacteria were harvested (10 min at 3000 RPM) at mid-exponential phase (absorbance at 546 nm of 2.5 ± 0.2 and 1.0 ± 0.2 for S. aureus and L. monocytogenes, respectively), washed once in 50 mM potassium phosphate buffer pH 7.0 and once in 50 mM HEPES buffer pH 7.0. The pellet was resuspended in 50 mM HEPES pH 7.0 to a final absorbance at 546 nm of 10. Bacteria were stored on ice and used within 5 hours. […] ATP was determined using a bioluminescence kit (Sigma, FLAA-1KT) and a BioOrbit 1253 luminometer. Total ATP content was determined by rapidly permeabilising 20 μl cell suspension with 80 μl dimethyl sulfoxide. The cell suspension was diluted in 4.9 ml sterile water, and ATP content was determined in 100 μl of the preparation as described by the manufacturer. To determine the extracellular ATP concentration, the 20 μl cell suspension was mixed with 80 μl sterile water and analyzed as described above. Intracellular ATP concentrations were calculated by using the intracellular volumes of 0.85 and 1.7 μm^3 for S. aureus and L. monocytogenes, respectively. The number of cells in suspension was determined by plate spreading.

[8] = tested on: L. monocytogenes; conditions: cited from earlier work
Source text: (§2) In the present study, we addressed the response of two human pathogens, S. aureus and L. monocytogenes to plectasin. […] In addition, the two bacteria represent different routes of infection and may be exposed to different arrays of HDPs. S. aureus is a hospital- and community-acquired pathogen that causes a wide range of diseases including septicaemia, toxic-shock syndrome and food poisoning ...

[9] = tested on: methicillin resistant S. aureus (MRSA); conditions: cited from earlier work
Source text: as §2

[10] = tested on: L. monocytogenes; experiment: MIC of plectasin stated in the text; assay type: cell-based, Listeria monocytogenes; conditions: difference in MIC values between the strains

In the case of `CC[C@H](C)[C@@H]1NC(=O)[C@H](CO)NC(=O)[C@H](CCCCN)NC(=O)[C@@H]2CSSC[C@@H](C(=O)N[C@@H](Cc3ccc(O)cc3)C(=O)O)NC(=O)[C@H](CCCCN)NC(=O)[C@@H]3CSSC[C@H](NC(=O)[C@H](CCC(N)=O)NC(=O)[C@H](CCSC)NC(=O)[C@H](CC(=O)O)NC(=O)[C@H](CC(=O)O)NC(=O)[C@H](CCC(=O)O)NC(=O)[C@H](CC(=O)O)NC(=O)[C@H](Cc4c[nH]c5ccccc45)NC(=O)[C@@H]4CCCN4C(=O)CNC(=O)[C@H](CC(N)=O)NC(=O)[C@@H](NC(=O)CNC(=O)[C@H](Cc4ccccc4)NC(=O)CN)CSSC[C@H](NC(=O)[C@H](Cc4ccc(O)cc4)NC(=O)CNC(=O)CNC(=O)[C@H](CCCCN)NC(=O)[C@H](Cc4ccc(O)cc4)NC(=O)CNC(=O)[C@H](CCCCN)NC1=O)C(=O)N[C@@H](C)C(=O)N[C@@H](CCCCN)C(=O)NCC(=O)NCC(=O)N[C@@H](Cc1ccccc1)C(=O)N[C@@H](C(C)C)C(=O)N3)C(=O)N[C@@H](Cc1c[nH]cn1)C(=O)N[C@@H](CC(N)=O)C(=O)N[C@@H](Cc1c[nH]cn1)C(=O)N2` [plectasin], the “Growth in the presence of plectasin” value [1] was “hardly affected the growth”, the “Growth in the presence of plectasin” value [2] was “hardly affected the growth” and the “Spontaneous mutations leading to changes in sensitivity” value [3] was “no spontaneous mutations”. For the same molecule, the “Expression of hrtB and hssR” value [4] was “no change of expression”, the Toxicity [5] was “very low toxicity” and the “Increased resistance of hssR mutants compared to the wild type” value [6] was 2 to 4 fold and 2-4 fold. For the same molecule, the “ATP leakage (intracellular ATP concentration)” value [7] was “remained at the same level as the controls”, the MIC [8] was “above 64 mg/L” and the MIC [9] was 16 to 32 µg/mL. The “Tolerance of L. monocytogenes compared to S. aureus” value [10] was 4-8 fold.
